Key:
[1] = Reduction of acetyl-CoA in human hepatocytes derived from methylmalonic acidemia patient at 30 uM pretreated for 30 mins followed by 13C-isoleucine addition and measured after 1 hr by MS/MS analysis relative to control; type: functional, Hepatocyte; set-up: scale not given: the % may be the effect or the level left; conditions: time 90 min, 1.5 h
OATP1B1 = molecular target: T1, OATP1B1 (Homo sapiens, UniProt Q9Y6L6); assay: Inhibition of human OATP1B1 assessed as reduction in OATP1B1- mediated E217betaG transport at 14900 uM relative to control; conditions: not told, probe E217betaG
T1 sequence (Q9Y6L6 whole entry): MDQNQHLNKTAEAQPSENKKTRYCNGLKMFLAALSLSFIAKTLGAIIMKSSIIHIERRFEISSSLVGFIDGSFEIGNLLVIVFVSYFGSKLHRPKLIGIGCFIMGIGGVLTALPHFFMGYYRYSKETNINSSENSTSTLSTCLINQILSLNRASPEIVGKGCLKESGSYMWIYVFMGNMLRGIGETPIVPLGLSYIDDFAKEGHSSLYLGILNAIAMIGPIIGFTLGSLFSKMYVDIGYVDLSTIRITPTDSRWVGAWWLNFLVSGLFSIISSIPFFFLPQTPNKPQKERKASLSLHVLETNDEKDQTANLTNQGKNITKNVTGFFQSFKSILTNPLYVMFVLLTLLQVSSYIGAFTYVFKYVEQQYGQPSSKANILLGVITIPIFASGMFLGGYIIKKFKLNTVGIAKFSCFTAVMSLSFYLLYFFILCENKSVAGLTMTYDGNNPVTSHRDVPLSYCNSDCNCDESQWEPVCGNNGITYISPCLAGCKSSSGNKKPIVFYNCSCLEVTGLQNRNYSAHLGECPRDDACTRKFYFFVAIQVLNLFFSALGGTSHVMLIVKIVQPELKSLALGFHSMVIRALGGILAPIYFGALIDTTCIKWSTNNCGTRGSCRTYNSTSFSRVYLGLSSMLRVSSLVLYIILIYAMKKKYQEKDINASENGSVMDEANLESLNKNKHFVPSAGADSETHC

[2] = Tmax in CD1 mouse at 300 mg/kg, po; type: ADME, organism-based; conditions: in vivo
[3] = Half life in Sprague-Dawley rat plasma at 10 mg/kg, po using radiolabeled compound by quantitative whole-body autoradiography; type: ADME, organism-based; conditions: in vivo
[4] = Dissociation constant, pKa of the compound; type: physicochemical
[5] = Drug metabolism in mouse hepatocytes assessed as formation of 2,2-dimethylbutanoic acid-CoA incubated for 1 hrs by MS/MS analysis; type: ADME, cell-based; conditions: Hepatocyte
[6] = Reduction of 2-Methylcitric acid in human hepatocytes derived from methylmalonic acidemia patient pretreated for 30 mins followed by 13C-isoleucine addition and measured after 1 hr by MS/MS analysis; type: functional, cell-based; conditions: hepatocyte
[7] = Drug metabolism in Sprague-Dawley rat feces assessed as HST5040-glucuronide metabolite formation at 10 mg/kg administered as single dose by LC/MS analysis; type: ADME, organism-based; conditions: in vivo
[8] = AUC (0 to infinity) in Sprague-Dawley rat at 10 mg/kg, iv; type: ADME, organism-based; set-up: route intravenous, time infinity, dose 10 mg/kg; conditions: in vivo
[9] = Drug metabolism in Gottingen minipig urine assessed as HST5040-carnitine metabolite formation at 10 mg/kg administered as single dose by LC/MS analysis; type: ADME, organism-based, Sus scrofa domesticus; conditions: pig, in vivo
[10] = Volume of distribution in Sprague-Dawley rat at 10 mg/kg, iv; type: ADME, organism-based; conditions: in vivo
[11] = Half life in CD1 mouse at 30 mg/kg, po; type: ADME, organism-based; conditions: in vivo
[12] = Drug metabolism in minipig assessed as beta-oxidation by measuring phase1 metabolite formation at 10 mg/kg administered single dose using radiolabeled compound; type: ADME, organism-based, Sus scrofa domesticus; conditions: pig, in vivo
[13] = AUC (0 to infinity) in Sprague-Dawley rat at 10 mg/kg, po; type: ADME, organism-based; set-up: time infinity, route oral, dose 10 mg/kg; conditions: in vivo
[14] = Reduction of propionyl-CoA in human hepatocytes derived from methylmalonic acidemia pretreated for 30 mins followed by 13C-isoleucine addition and measured after 1 hr by MS/MS analysis; type: functional, cell-based; conditions: hepatocyte
[15] = Drug metabolism in human hepatocytes assessed as beta-oxidation by measuring phase1 metabolite formation at 50 uM measured after 4 hrs; type: ADME, cell-based, Hepatocyte
Cytochrome P450 3A4 = Cytochrome P450 3A4 (Homo sapiens, UniProt P08684); assay: Direct inhibition of CYP3A4 in human liver microsomes using testosterone as substrate; type: ADME
[16] = Drug metabolism in Sprague-Dawley rat plasma assessed as HST5040-glycine metabolite formation at 10 mg/kg administered as single dose using radiolabeled compound by LC/MS analysis; type: ADME, organism-based; conditions: in vivo
[17] = Reduction of 2-Methylcitric acid in human hepatocytes derived from propionic acidemia patient at 30 uM pretreated for 30 mins followed by 13C-isoleucine addition and measured after 1 hr by MS/MS analysis relative to control; type: functional, Hepatocyte; set-up: scale not given: the % may be the effect or the level left; conditions: time 90 min, 1.5 h
[18] = AUC (0 to infinity) in Sprague-Dawley rat at 50 mg/kg, po; type: ADME, organism-based; set-up: time infinity, route oral, dose 50 mg/kg; conditions: in vivo
[19] = Cmax in CD1 mouse at 30 mg/kg, iv; type: ADME, organism-based; set-up: route intravenous, dose 30 mg/kg; conditions: in vivo
[20] = Drug metabolism in cynomolgus monkey hepatocytes assessed as formation of 2,2-dimethylbutanoic acid-CoA incubated for 1 hrs by MS/MS analysis; type: ADME, cell-based; conditions: Macaca fascicularis, Hepatocyte
[21] = Ratio of drug level in liver to plasma in Sprague-Dawley rat at 10 mg/kg, po measured at 1 hr post dose; type: ADME, organism-based; conditions: liver (relative to plasma)
[22] = Drug metabolism in Sprague-Dawley rat feces assessed as HST5040-carnitine metabolite formation at 10 mg/kg administered as single dose by LC/MS analysis; type: ADME, organism-based; conditions: in vivo
[23] = Protein binding in Sprague-Dawley rat plasma at 40 uM incubated for 4 hrs by equilibrium dialysis; type: ADME, cell-free
[24] = Reduction of propionyl-CoA in human hepatocytes derived from propionic acidemia patient at 100 uM pretreated for 30 mins followed by 13C-isoleucine addition and measured after 1 hr by MS/MS analysis relative to control; type: functional, Hepatocyte; set-up: scale not given: the % may be the effect or the level left; conditions: time 90 min, 1.5 h
[25] = Reduction of acetyl-CoA in human hepatocytes derived from propionic acidemia patient pretreated for 30 mins followed by 13C-isoleucine addition and measured after 1 hr by MS/MS analysis; type: functional, cell-based; conditions: hepatocyte

Chain of Cytochrome P450 3A4 (P08684 whole entry): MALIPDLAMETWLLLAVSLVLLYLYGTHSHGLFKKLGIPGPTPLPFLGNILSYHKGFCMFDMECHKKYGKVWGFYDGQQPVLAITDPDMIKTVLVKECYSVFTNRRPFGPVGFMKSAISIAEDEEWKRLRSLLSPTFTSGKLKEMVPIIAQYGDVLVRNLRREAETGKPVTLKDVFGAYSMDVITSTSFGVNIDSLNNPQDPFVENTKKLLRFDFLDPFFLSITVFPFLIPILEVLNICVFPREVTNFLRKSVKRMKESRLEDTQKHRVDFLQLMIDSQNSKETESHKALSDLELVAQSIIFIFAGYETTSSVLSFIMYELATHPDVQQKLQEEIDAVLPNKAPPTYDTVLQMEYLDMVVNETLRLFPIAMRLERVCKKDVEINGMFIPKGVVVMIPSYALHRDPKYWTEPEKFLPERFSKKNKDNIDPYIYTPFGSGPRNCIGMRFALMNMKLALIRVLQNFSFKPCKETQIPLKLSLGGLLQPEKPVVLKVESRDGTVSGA

SMILES: CCC(C)(C)C(=O)O [DIMEBUTIC ACID]
- Activity [1]: 13.5%
- inhibition at 14900 µM (OATP1B1): 25.9%
- Tmax [2]: 30 min
- t1/2 [3]: 2.4 h
- pKa [4]: 4.4
- EC50 [5]: 130 µM
- EC50 [6]: 800 nM
- Drug metabolism [7]: Metabolite_Detected
- AUC(0-inf) [8]: 9670 ng·h/mL
- Drug metabolism [9]: Metabolite_Detected
- Vd [10]: 1.22 L/kg
- half-life [11]: 35.4 min
- Drug metabolism [12]: Metabolite_Notdetected
- AUC(0-inf) [13]: 5520 ng·h/mL
- EC50 [14]: 2100 nM
- Drug metabolism [15]: Metabolite_Notdetected
- IC50 (Cytochrome P450 3A4): > 10 mM
- Drug metabolism [16]: Metabolite_Detected
- Activity [17]: -78.6%
- AUC(0-inf) [18]: 33100 ng·h/mL
- Cmax [19]: 59.4 µg/mL
- EC50 [20]: 46.2 µM
- Kp at 1 h [21]: 4.6
- Drug metabolism [22]: Metabolite_Detected
- PPB [23]: 0%
- Activity [24]: 87%
- EC50 [25]: 2300 nM

— ChEMBL document CHEMBL4808180, “Identification of 2,2-Dimethylbutanoic Acid (HST5040), a Clinical Development Candidate for the Treatment of Propionic Acidemia and Methylmalonic Acidemia” (J Med Chem, 2021)
